Results on 22 compounds are retold here after PubChem BioAssay (NCI).

Assay in all cases: DTP human tumour cell line panel, 48 h
The subject of assay [1] is DMS 114 small cell lung.
Assay [2] relates to NCI-H226 lung.
Assay [3] concerns MOLT-4 leukemia.
For assay [4], the system named is CAKI-1 renal.
Assay [5] concerns HOP-92 NSCLC.
Assay [6] has as its system SW-620 colon.
In assay [7] the test system is DMS 273 small cell lung.
For assay [8], the system named is OVCAR-8 ovarian.
For assay [9], the system named is SK-OV-3 ovarian.

Molecules are shown by their SMILES. Where “and” joins values, the source holds several entries; their conditions need not be identical. Equal values may be shown once.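 Exposure lasted 48 hours, with cells grown in 96-well plates and compounds tested at five concentrations. At the GI50, growth is halved. TGI marks complete inhibition of growth.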

For the compound `CC[C@@H]1C[C@H]2CC3c4[nH]c5ccc(O)cc5c4CCN(C2)C31`, the TGI in [1], in assay [2], in assay [3], in assay [4], in assay [5] and in [6] was greater than 100 µM in each case. Moreover, the concentration for total growth inhibition (TGI) in assay [7] and in assay [8] was greater than 100 µM throughout.

Turning to `Cc1nn(-c2nc3ccccc3s2)c2c1C(=O)c1ccccc1-2`, the TGI in assay [1], in assay [9], in assay [5], in [6] and in assay [7] was greater than 100 µM each time.

On to `COc1cc(O)c2c(c1)C(=O)c1cc3c(c(O)c1C2=O)C(OC1OC(C)C(O)C(O)C1OC)C(OC)C(C)(O)C3=O` (stereo not given), for which the TGI (usually the concentration giving total growth inhibition) in assay [1] was 5.24 µM; in assay [2] it was 4.82 µM and 9.03 µM; in assay [3] it was 11.7 µM and 17.3 µM; in [4] it was 6.82 µM and 4.95 µM; in assay [9] it was 52 µM and 34.8 µM; in assay [5], 8.49 µM and 1.81 µM. Besides, the TGI was 8.38 µM and 5.41 µM in [6]; 3.85 µM in assay [7]; 5.27 µM and 1.62 µM in assay [8]. For the same compound, the GI50 (commonly the concentration giving 50% growth inhibition) in assay [2] is 2.22 µM; in assay [3], 3.21 µM and 5.19 µM; in assay [4], 1.99 µM and 0.671 µM; in assay [9], 5.2 µM; in [5], 2 µM; in assay [6], 2.3 µM. Also, the GI50 in [8] was 1.42 µM and 0.373 µM.

Consider `O=C(COC(=O)c1cccc2c(=O)c3ccccc3[nH]c12)Nc1ccccc1`, for which the TGI in assay [1] is 59.3 µM; in assay [2] it was greater than 100 µM; in [3] it was 43.8 µM; in assay [4] it was greater than 100 µM; in [9], greater than 100 µM; in [5], greater than 100 µM. The TGI in assay [6], in [7] and in [8] was greater than 100 µM throughout.

`COc1ccc(OC(C(=O)O)c2ccccc2)c2c1CCCC2=O` (stereo not given): the TGI in assay [1], in assay [3], in assay [4], in assay [9], in assay [5] and in assay [6] was greater than 100 µM throughout. Further, the TGI in assay [7] and in assay [8] was greater than 100 µM each time.

As for `NCCN1C(=O)C2C3c4ccccc4C(c4ccccc43)C2C1=O` (stereo not given), the TGI in assay [1], in assay [2], in assay [3], in [4], in assay [9] and in assay [5] was greater than 100 µM each time. Further, the total growth inhibition concentration (TGI) in [6], in [7] and in assay [8] was greater than 100 µM each time.

For `Cc1nn(C)cc1P(=S)(c1ccccc1)c1ccccc1`, the TGI in assay [1], in assay [3], in assay [4], in assay [9], in assay [5] and in assay [6] was greater than 100 µM each time. The TGI in [7] and in [8] was greater than 100 µM throughout.

On to `CC(C)(C)OC(=O)NC(CO)c1cccc(OCc2ccccc2)c1` (stereo not given), for which the TGI in assay [1], in assay [2], in [3], in [4], in assay [9] and in assay [5] was greater than 100 µM throughout. The TGI in [6], in [7] and in assay [8] was greater than 100 µM in each case.

For the compound `O=C(NCC(O)CNC(=O)C(F)(F)F)C(F)(F)F`, the TGI in assay [1], in assay [2], in assay [3], in [4], in assay [9] and in assay [5] was greater than 100 µM in each case. Moreover, the TGI in assay [6], in assay [7] and in assay [8] was greater than 100 µM in each case.

Turning to `NC(N)=NS(=O)(=O)c1ccc(Nc2c3ccccc3nc3c(C(=O)Nc4ccc(S(N)(=O)=O)cc4)ccc(Cl)c23)cc1`, the TGI in [1], in assay [2], in [3], in assay [4], in [9] and in [5] was greater than 100 µM throughout. Further, the TGI in assay [6], in assay [7] and in assay [8] was greater than 100 µM in each case.

`N#C/C(=C/Sc1ccccc1)C(=O)O`: the TGI was 35.8 µM in [1]; 58.7 µM in [2]; greater than 100 µM in [3]; 79.5 µM in [4]; greater than 100 µM in [9]; greater than 100 µM in assay [5]. Further, the TGI is greater than 100 µM in [6], 72.6 µM in assay [7] and 36.9 µM in assay [8].

Consider `N#CCC(=O)N/N=C(\C(=O)Nc1ccc(Cl)c(Cl)c1)C1CN(c2ccccc2)N=C1N` (stereo not given), for which the TGI in assay [1], in assay [2], in assay [3], in assay [9], in assay [5] and in [7] was greater than 100 µM in each case. The TGI in assay [8] was greater than 100 µM.

As for `O=c1oc(=O)c2oc3ccccc3oc1=2`, the TGI in [1], in assay [2], in assay [3], in [4], in [9] and in [5] was greater than 100 µM each time. Further, the TGI in [6], in assay [7] and in assay [8] was greater than 100 µM in each case.

Consider `Clc1cc2n[se]nc2cc1Cl`, for which the TGI in assay [1], in assay [3], in [4], in assay [9], in [6] and in assay [7] was greater than 100 µM in each case. Further, the TGI in [8] is greater than 100 µM.

Regarding `CC1OC(OC2C(CO)OC(O[C@H]3CC[C@@]4(C)C(=CC[C@H]5[C@@H]6C[C@@H]7O[C@]8(CC[C@@H](C)CN8)[C@@H](C)[C@@H]7[C@@]6(C)CC[C@@H]54)C3)C(O)C2O)C(O)C(O)C1O` (stereo not given in full), the TGI in assay [1], in assay [3], in assay [4], in [9], in assay [5] and in assay [6] was greater than 100 µM each time. The TGI in assay [7] and in [8] was greater than 100 µM throughout.

`O=S(O)CCCSSc1ccccc1`: the TGI was 67.6 µM in assay [1]; 70.2 µM in assay [3]; greater than 100 µM in [4]; greater than 100 µM in assay [9]; greater than 100 µM in assay [6]; greater than 100 µM in [7]. This compound also came in with a TGI in assay [8] greater than 100 µM.

Consider `CNC(=O)c1cccc2c(Nc3ccc(NS(C)(=O)=O)cc3OC)c3cccc(C)c3nc12`, for which the TGI came out at 1.25 µM in assay [1]; 1.05 µM in [2]; 0.0512 µM in assay [3]; 1.41 µM in assay [4]; 0.907 µM in assay [9]; 3.67 µM in [5]. Further, the TGI was 5.5 µM in assay [6], 1.69 µM in [7] and 5.98 µM in assay [8].

Take `O=C1CC(O)(c2ccccc2)C(c2ccccc2)=C1c1ccccc1` (stereo not given): the TGI in assay [1] is 89.8 µM; in assay [3], 81.5 µM; in assay [4] it was greater than 100 µM; in assay [9], greater than 100 µM; in [5], 61.3 µM; in assay [6], greater than 100 µM. In addition, the TGI in assay [7] and in [8] was greater than 100 µM throughout.

Take `CCOC(=O)c1ccc(NC(=O)SCCC(=O)O)cc1`: the TGI in assay [1], in assay [2], in assay [3], in [6], in assay [7] and in assay [8] was greater than 100 µM in each case.

Regarding `COC(=O)c1ccc(Cl)cc1NC(=O)C1CCCCC1`, the TGI in [1], in [2], in assay [3], in assay [4], in assay [5] and in assay [6] was greater than 100 µM each time. Also, the concentration for total growth inhibition (TGI) in assay [7] and in [8] was greater than 100 µM each time.

Take `CCC[CH2][Sn]1([CH2]CCC)[O]C(=O)c2ccc(C)cc2[O]1`: the GI50 in assay [1] was 0.21 µM; in [2], 1.5 µM; in assay [3], 0.222 µM; in assay [4], 0.229 µM; in assay [9], 1.4 µM; in [5], 0.326 µM. For the same compound, the GI50 is 0.174 µM in assay [6], 0.55 µM in assay [7] and 0.818 µM in assay [8]. Also, the TGI in assay [1] was 0.587 µM; in assay [2], 2.93 µM; in [3] it was 0.621 µM; in [4], 0.669 µM; in [9], 2.75 µM; in assay [5], 1.24 µM. Moreover, the TGI was found to be 0.4 µM in assay [6], 2.62 µM in assay [7] and 2.1 µM in assay [8].

`OC1C2CCC1C1C3C=CC(C3)C21` (stereo not given): the TGI in [1], in assay [2], in [3], in assay [4], in [9] and in assay [5] was greater than 100 µM in each case. Moreover, the TGI in assay [6], in assay [7] and in assay [8] was greater than 100 µM throughout.
